Laboratory results published in patent US6565892B2, “Synergistic fungicidal composition comprising a compound analogous to strobilurin” (Rhone-Poulenc Agrochimie, priority 1995, dated 2003).
≈ marks a conversion by molar mass, not a printed value. Like-named read-outs stand apart in the source and are kept apart here.

Tested on: Plasmopara viticola
Assay: In vivo test with respect to Plasmopara viticola (grape downy mildew) on Chardonnay vine cuttings, preventive treatment 72 hours before infection
Conditions: in Vitis vinifera, spray 72 h before infection, reading 7 days after infection, read-out: dose of A alone which it is necessary to apply for the destruction of 50% of the parasite
Method: A suspension comprising the compounds A and B in a liquid mixture composed of a surface-active agent (oleate of polyoxyethylenated derivative of sorbitan) and water is prepared.
The component B is fosetyl-Al; the A/B ratio is 0.05, 0.07 and 0.1 (B/A=20, 15 and 10).
Vine (Vitis vinifera) cuttings, variety Chardonnay, are grown in small pots. When these seedlings are 2 months old (8- to 10-leaf stage, height of 10 to 15 cm), they are treated by spraying with the above suspension.
After 72 hours, each seedling is infected by spraying with an aqueous suspension of spores of Plasmopara viticola, which suspension is obtained from sporulated leaves infected 7 days previously. These spores are suspended at a concentration of 100,000 units per cm^3 of inoculum. Infection is carried out by spraying the inoculum at the undersurface of the leaves.
The infected seedlings are then incubated for seven days at 20-22° C. at 90-100% relative humidity under natural light.
Reading is carried out 7 days after infection, in comparison with the control seedlings.
The results obtained are reported in the form of points, corresponding to 50% destruction of the parasite, and are plotted on a Tammes isobole diagram which contains, on the abscissa, the doses of A expressed in ppm (mg/l) and, on the ordinate, the doses of B, also in ppm (mg/l). […]

For `CNC(=O)/C(=N/OC)c1ccccc1COc1cc(C)ccc1C` [SSF-129, N-methyl-(E)-methoxyimino[2-(2,5-dimethylphenoxymethyl)phenyl]acetamide], the EC50 (A = SSF-129 alone) was 4.6 µg/mL (≈ 14.1 µM).
`CO/C=C(/C(=O)OC)c1ccccc1Oc1cc(Oc2ccccc2C#N)ncn1` [ICIA5504, methyl (E)-2-{2-[6-(2-cyanophenoxy)pyrimidin-4-yloxy]phenyl}-3-methoxyacrylate] was tested, and the EC50 (A = ICIA5504 alone) was 1.5 µg/mL (≈ 3.72 µM).
